{"source": "patent US20230130403A1", "about": "“METHODS OF TREATMENT WITH S1P RECEPTOR MODULATORS” (PRIOTHERA SAS, priority 2021, published 2023)", "key": {"[1]": {"tested_on": "acute GVHD after allogeneic HSCT", "settings": "preclinical; cited from earlier work"}, "S1PR1 versus S1PR3-5": {"tested_on": "S1PR1 versus S1PR3-5", "settings": "cited from earlier work"}, "[2]": {"tested_on": "peripheral lymphocyte counts", "experiment": "Recovery of absolute lymphocyte counts after S1P modulator dosing in healthy volunteers", "assay_type": "in vivo, human", "settings": "single 1 mg FTY720, BAF312 multiple doses for 28 days, single 3 mg KRP203", "procedure": "Mocravimod is particularly preferred. […] A measurable parameter that determines maintenance of the mode of action, i.e., sequestering of lymphocytes in secondary lymphoid organs and bone marrow, is reduction of peripheral lymphocyte counts. Recovery of absolute lymphocyte counts to 80% of normal counts after a single 1 mg dose of FTY720, multiple dose applications of BAF312 for 28 days, or a single 3 mg dose of KRP203 was reached after 8, 7 and more than 10 days, respectively."}, "[3]": {"experiment": "Tissue distribution of [14C]KRP203 radioactivity in Wistar rats", "assay_type": "in vivo, rat", "excerpt": "Highly exposed tissues were liver and to a smaller extent kidney, small intestine, adrenal gland, lungs, spleen and mesenteric lymph nodes."}, "Plasma protein binding": {"experiment": "Plasma protein binding", "assay_type": "in vitro ADME", "settings": "human plasma"}, "[4]": {"experiment": "Pharmacokinetics of [14C]KRP203 radioactivity in dogs", "assay_type": "in vivo, dog", "settings": "oral administration"}, "[5]": {"experiment": "Pharmacokinetics of [14C]KRP203 radioactivity in rats", "assay_type": "in vivo, rat", "excerpt": "Following intravenous administration of [14C]KRP203, radioactivity was readily distributed to rat and dog tissues with similar volume of distribution (Vss=8.0 L/kg in rat)."}, "[6]": {"tested_on": "guinea pig papillary muscle preparation", "experiment": "APD in guinea pig papillary muscle preparation", "settings": "concentrations of 3 μM", "excerpt": "(§1) Based on the available in vitro and in vivo data, except for the potential to cause a negative chronotropic effect and some mild increase in blood pressure, there is no indication that KRP203 would cause arrhythmia or QT prolongation in man."}, "S1P5": {"biological_target": "S1P5 (Homo sapiens, UniProt Q9H228)", "sequence (Q9H228 whole entry)": "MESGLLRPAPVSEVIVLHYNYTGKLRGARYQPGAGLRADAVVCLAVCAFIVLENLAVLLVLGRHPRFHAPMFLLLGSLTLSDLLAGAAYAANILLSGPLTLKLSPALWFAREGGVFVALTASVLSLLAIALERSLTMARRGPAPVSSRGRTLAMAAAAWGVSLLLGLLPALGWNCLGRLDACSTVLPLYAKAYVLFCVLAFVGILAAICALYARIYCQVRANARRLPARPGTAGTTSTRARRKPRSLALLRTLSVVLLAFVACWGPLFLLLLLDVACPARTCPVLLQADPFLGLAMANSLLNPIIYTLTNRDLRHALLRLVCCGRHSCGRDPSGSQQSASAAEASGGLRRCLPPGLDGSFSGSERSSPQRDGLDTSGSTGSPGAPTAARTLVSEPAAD", "experiment": "S1P receptor agonism on S1P5", "assay_type": "biochemical", "excerpt": "(§2) KRP203 (mocravimod) is an immunomodulator that selectively targets sphingosine 1-phosphate (S1P) receptors via its phosphorylated active metabolite. […] The therapeutic effects are believed to be due to the prevention of effector lymphocyte recirculation from lymphatic tissue to susceptible target organs such as the gut, skin or CNS."}, "hS1P3": {"biological_target": "hS1P3 (Homo sapiens, UniProt Q99500)", "sequence (Q99500 whole entry)": "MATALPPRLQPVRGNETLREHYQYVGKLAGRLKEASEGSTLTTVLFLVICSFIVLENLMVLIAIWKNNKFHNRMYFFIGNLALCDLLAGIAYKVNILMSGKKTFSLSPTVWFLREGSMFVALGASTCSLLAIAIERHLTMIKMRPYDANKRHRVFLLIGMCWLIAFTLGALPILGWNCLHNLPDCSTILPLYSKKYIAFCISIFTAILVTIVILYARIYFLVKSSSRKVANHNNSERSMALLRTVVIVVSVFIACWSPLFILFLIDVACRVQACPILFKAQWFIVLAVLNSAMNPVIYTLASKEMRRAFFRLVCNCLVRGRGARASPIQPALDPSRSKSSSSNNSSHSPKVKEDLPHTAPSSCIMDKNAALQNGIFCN", "experiment": "S1P receptor agonism on S1P3", "assay_type": "biochemical", "excerpt": "as §2"}, "[7]": {"experiment": "Plasma toxicokinetics in dog"}, "hERG channels": {"biological_target": "hERG channels (Homo sapiens, UniProt Q12809)", "sequence (Q12809 whole entry)": "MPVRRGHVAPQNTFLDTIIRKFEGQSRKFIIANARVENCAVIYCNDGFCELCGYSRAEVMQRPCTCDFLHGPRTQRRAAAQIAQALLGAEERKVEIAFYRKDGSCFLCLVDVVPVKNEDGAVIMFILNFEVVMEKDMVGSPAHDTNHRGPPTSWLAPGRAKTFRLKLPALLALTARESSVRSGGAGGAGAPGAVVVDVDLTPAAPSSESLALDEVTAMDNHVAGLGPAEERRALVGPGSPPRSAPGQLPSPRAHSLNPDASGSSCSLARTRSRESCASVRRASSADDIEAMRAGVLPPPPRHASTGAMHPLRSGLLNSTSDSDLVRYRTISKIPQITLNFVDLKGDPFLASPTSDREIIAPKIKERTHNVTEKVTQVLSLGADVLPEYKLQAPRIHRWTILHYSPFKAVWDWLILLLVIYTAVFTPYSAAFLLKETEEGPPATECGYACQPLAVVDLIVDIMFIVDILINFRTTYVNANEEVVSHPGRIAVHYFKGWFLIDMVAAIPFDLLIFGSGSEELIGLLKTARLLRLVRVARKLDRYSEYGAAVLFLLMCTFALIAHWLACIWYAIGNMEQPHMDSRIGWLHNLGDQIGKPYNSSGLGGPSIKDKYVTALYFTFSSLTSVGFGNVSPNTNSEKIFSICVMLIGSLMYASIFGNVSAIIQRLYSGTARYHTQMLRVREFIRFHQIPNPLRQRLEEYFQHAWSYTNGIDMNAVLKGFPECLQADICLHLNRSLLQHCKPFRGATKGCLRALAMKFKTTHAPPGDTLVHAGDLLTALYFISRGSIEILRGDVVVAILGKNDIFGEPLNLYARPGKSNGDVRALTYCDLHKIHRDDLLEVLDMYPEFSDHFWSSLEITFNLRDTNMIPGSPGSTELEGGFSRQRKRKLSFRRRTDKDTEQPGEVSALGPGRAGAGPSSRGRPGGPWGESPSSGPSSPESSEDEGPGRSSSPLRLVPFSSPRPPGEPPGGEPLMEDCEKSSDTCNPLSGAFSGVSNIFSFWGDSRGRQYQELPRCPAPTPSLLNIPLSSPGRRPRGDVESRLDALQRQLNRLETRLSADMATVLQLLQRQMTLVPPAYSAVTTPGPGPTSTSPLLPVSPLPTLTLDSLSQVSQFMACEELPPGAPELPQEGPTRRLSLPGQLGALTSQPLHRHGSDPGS", "experiment": "hERG channel inhibition in vitro", "assay_type": "biochemical", "settings": "up to the highest concentration tested, 3 μM", "excerpt": "as §1"}, "[8]": {"tested_on": "GPCRs, ion channels, transporters, nuclear receptors and enzymes", "experiment": "Off-target binding assays", "settings": "compared to estimated free plasma concentration at 3 mg/day", "excerpt": "Thus it is unlikely that secondary pharmacology effects should arise due to non-specific receptor activation at therapeutic doses."}, "S1P1 [9]": {"biological_target": "T1, S1P1 (Homo sapiens, UniProt P21453)", "T1 sequence (P21453 whole entry)": "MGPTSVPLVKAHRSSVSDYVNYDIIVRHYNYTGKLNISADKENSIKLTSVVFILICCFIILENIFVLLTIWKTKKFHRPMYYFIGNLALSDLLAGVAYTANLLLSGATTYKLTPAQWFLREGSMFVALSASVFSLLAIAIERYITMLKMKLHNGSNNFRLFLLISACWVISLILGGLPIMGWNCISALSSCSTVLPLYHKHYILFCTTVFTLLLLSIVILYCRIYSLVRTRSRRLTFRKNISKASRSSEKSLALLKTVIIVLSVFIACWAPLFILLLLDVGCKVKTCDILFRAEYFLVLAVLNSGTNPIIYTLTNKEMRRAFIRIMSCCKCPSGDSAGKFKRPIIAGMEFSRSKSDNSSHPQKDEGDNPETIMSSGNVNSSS", "experiment": "S1P receptor agonism on S1P1", "assay_type": "biochemical", "excerpt": "as §2"}, "[10]": {"tested_on": "human cytochrome P450 isoenzymes", "experiment": "Inhibition of cytochrome P450 isoenzymes in vitro", "assay_type": "in vitro ADME", "procedure": "(§3) The in vivo ratio of phosphorylated KRP203 to KRP203 in plasma was up to 45 in rat. As the metabolic activities on KRP203 in human blood and hepatocytes were lower than those of other species, the metabolic clearance of KRP203 in man is expected be lower than that in rat and dog. […] KRP230 formed low amounts of covalent drug-protein adducts in human hepatocytes in vitro. Due to the low levels detected ([…] at 3 hours) in-vitro adduct formation is unlikely to be associated with clinical relevant findings at low dose levels (e.g. below 10 mg).\nThe weak inhibitory effect of ciclosporin on hepatic CYP3A4 is unlikely to relevantly impact the PK of KRP203."}, "[11]": {"experiment": "In vitro metabolite profile in human hepatocytes", "assay_type": "in vitro ADME"}, "S1P1 [12]": {"biological_target": "T1, S1P1", "experiment": "S1P1 internalization", "assay_type": "cell-based", "excerpt": "KRP203 reduces lymphocyte counts in peripheral blood by more than 80%."}, "bacterial mutation": {"tested_on": "bacterial mutation", "experiment": "In vitro genotoxicity: bacterial mutation", "assay_type": "cell-based"}, "[13]": {"experiment": "Plasma toxicokinetics in rat"}, "[14]": {"experiment": "In vivo plasma ratio of phosphorylated KRP203 to KRP203 in rat", "procedure": "as §3"}, "S1P4": {"biological_target": "S1P4 (Homo sapiens, UniProt O95977)", "sequence (O95977 whole entry)": "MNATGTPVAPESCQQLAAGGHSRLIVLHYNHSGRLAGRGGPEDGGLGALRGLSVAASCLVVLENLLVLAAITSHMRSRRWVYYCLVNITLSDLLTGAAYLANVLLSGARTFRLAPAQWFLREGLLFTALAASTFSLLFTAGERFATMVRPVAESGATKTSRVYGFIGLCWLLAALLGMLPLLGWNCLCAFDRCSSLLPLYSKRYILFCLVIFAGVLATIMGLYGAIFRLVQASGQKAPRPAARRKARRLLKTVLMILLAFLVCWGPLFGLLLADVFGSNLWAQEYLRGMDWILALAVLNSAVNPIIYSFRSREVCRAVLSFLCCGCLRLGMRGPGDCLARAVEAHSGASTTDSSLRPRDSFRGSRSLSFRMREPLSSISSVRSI", "experiment": "S1P receptor agonism on S1P4", "assay_type": "biochemical", "excerpt": "as §2"}, "chromosome aberration": {"tested_on": "chromosome aberration", "experiment": "In vitro genotoxicity: chromosome aberration", "assay_type": "cell-based"}, "[15]": {"biological_target": "CYP3A4 via the human PXR receptor (Homo sapiens, UniProt O75469)", "sequence (O75469 whole entry)": "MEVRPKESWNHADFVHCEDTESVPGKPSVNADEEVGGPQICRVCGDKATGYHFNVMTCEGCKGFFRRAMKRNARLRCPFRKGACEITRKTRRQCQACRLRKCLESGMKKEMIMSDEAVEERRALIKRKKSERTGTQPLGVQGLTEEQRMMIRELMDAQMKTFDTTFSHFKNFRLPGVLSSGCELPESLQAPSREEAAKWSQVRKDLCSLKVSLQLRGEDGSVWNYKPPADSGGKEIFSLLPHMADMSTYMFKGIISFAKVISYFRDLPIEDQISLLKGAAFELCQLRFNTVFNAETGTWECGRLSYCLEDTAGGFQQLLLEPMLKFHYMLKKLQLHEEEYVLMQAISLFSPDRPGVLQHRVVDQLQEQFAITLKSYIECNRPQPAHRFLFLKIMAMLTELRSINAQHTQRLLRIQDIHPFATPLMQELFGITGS", "experiment": "CYP3A4 induction via PXR", "assay_type": "in vitro ADME"}}, "data": [{"compound": "CCCCCCCCc1ccc(CCC(N)(CO)CO)cc1", "note": "[FTY720]", "values": [{"measurement": "effect on acute GVHD", "setting": "[1]", "result": "ameliorate acute GVHD"}, {"measurement": "S1P receptor selectivity", "setting": "S1PR1 versus S1PR3-5", "result": "poor selectivity for S1PR1 versus S1PR3-5"}, {"measurement": "Recovery of absolute lymphocyte counts to 80% of normal counts", "setting": "[2]", "result": 8, "unit": "days"}]}, {"compound": "CCc1cc(/C(C)=N/OCc2ccc(C3CCCCC3)c(C(F)(F)F)c2)ccc1CN1CC(C(=O)O)C1", "note": "[BAF312]", "values": [{"measurement": "Recovery of absolute lymphocyte counts to 80% of normal counts", "setting": "[2]", "result": 7, "unit": "days"}]}, {"compound": "NC(CO)(CO)CCc1ccc(Sc2cccc(OCc3ccccc3)c2)cc1Cl", "note": "[[14C]KRP203]", "values": [{"measurement": "total radioactivity in brain relative to plasma", "setting": "[3]; 14-day multiple oral dose 0.5 mg/kg/day", "result": "accumulated more in brain relative to plasma and eliminated much slower"}, {"measurement": "radioactivity in CNS tissues (cerebrum, cerebellum and medulla oblongata) versus plasma", "setting": "[3]; until 24 h post-dose after single administration", "result": "lower than in plasma"}, {"measurement": "fraction unbound", "setting": "Plasma protein binding", "result": "< 0.01"}, {"measurement": "radioactivity Tmax", "setting": "[4]", "result": 9.3, "unit": "h"}, {"measurement": "volume of distribution Vss", "setting": "[5]; intravenous administration, rat", "result": 8.0, "unit": "L/kg"}, {"measurement": "radioactivity Tmax", "setting": "[5]; oral administration, male rats", "result": 7, "unit": "h"}]}, {"compound": "KRP203-phosphate", "values": [{"measurement": "APD prolongation", "setting": "[6]", "result": "No APD prolongation"}, {"measurement": "agonist activity", "setting": "S1P5", "result": "potent but partial agonist"}, {"measurement": "agonist activity", "setting": "hS1P3", "result": "potent but partial agonist"}, {"measurement": "KRP203-phosphate/KRP203 ratio (based on AUC0-24 h)", "setting": "[7]", "result": "1.4-6.6"}, {"measurement": "accumulation after repeated dosing (4 and 13 weeks)", "setting": "[7]", "result": "no evidence of accumulation"}, {"measurement": "proportionality between exposure and dose", "setting": "[7]; single and multiple doses (4 and 13 weeks)", "result": "trend for an under proportionality at all dose levels"}, {"measurement": "effects on hERG channels", "setting": "hERG channels", "result": "did not show significant effects"}, {"measurement": "safety margins in off-target binding assays", "setting": "[8]", "result": "large safety margins"}, {"measurement": "agonist activity", "setting": "S1P1 [9]", "result": "potent agonist"}, {"measurement": "effect on cytochromes P450 enzymes and transporters", "setting": "[10]", "result": "lack of effect"}, {"measurement": "metabolite abundance in human hepatocytes", "setting": "[11]", "result": "among the more prominent metabolites"}, {"measurement": "internalization of the S1P1", "setting": "S1P1 [12]", "result": "long-lasting and complete internalization"}, {"measurement": "genotoxic potential", "setting": "bacterial mutation", "result": "no evidence for a genotoxic potential"}, {"measurement": "KRP203-phosphate/KRP203 ratio (based on AUC0-24 h)", "setting": "[13]", "result": "10.9-19.1"}, {"measurement": "proportionality between exposure and dose", "setting": "[13]; single and multiple administrations", "result": "apparent proportionality between exposure and dose"}, {"measurement": "in vivo ratio of phosphorylated KRP203 to KRP203 in plasma", "setting": "[14]", "result": "up to 45"}, {"measurement": "agonist activity", "setting": "S1P4", "result": "potent agonist"}, {"measurement": "genotoxic potential", "setting": "chromosome aberration", "result": "no evidence for a genotoxic potential"}, {"measurement": "no significant induction of CYP3A4 via the human PXR receptor up to concentration", "setting": "[15]", "result": "≤ 50", "unit": "µM"}]}]}
